Our source for the EC50 values is patent US11179383B2 (Gilead Sciences, Inc., priority 2018, dated 2021).

This assay addresses T1, α4β7 integrin (Homo sapiens, UniProt P13612+P26010).
T1 construct: monitoring the capture of α4β7 integrin expressing cells on a recombinant MadCAM-1 extracellular domain-coated plate; endogenous in cells; host or cells: RPMI8866 cells
T1 sequence (P13612 34-1032): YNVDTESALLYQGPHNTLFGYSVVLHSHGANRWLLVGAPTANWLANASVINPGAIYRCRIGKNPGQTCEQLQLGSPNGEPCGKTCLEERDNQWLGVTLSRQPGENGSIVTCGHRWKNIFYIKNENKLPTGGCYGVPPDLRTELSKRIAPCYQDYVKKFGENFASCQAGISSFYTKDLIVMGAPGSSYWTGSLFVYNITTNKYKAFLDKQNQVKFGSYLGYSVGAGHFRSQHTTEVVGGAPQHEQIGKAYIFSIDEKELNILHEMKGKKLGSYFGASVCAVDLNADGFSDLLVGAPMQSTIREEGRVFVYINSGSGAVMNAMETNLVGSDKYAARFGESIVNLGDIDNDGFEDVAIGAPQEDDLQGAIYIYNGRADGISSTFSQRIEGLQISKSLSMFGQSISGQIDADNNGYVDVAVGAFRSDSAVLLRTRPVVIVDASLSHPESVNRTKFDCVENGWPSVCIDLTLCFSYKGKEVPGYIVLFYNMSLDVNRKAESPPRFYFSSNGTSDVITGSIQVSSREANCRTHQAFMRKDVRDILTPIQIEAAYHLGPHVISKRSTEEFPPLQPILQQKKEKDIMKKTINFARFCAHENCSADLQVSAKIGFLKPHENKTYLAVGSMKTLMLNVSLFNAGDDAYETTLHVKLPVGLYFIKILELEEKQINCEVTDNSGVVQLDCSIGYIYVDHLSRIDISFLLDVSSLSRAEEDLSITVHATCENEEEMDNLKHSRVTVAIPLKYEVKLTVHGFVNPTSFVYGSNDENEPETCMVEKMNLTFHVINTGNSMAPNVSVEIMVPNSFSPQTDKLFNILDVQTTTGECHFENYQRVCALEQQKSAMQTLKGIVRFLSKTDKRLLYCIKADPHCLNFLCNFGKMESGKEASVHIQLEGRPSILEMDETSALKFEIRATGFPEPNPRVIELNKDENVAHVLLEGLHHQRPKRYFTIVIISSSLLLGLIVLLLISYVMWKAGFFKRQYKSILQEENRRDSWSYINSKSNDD
T1 sequence (P26010 20-798): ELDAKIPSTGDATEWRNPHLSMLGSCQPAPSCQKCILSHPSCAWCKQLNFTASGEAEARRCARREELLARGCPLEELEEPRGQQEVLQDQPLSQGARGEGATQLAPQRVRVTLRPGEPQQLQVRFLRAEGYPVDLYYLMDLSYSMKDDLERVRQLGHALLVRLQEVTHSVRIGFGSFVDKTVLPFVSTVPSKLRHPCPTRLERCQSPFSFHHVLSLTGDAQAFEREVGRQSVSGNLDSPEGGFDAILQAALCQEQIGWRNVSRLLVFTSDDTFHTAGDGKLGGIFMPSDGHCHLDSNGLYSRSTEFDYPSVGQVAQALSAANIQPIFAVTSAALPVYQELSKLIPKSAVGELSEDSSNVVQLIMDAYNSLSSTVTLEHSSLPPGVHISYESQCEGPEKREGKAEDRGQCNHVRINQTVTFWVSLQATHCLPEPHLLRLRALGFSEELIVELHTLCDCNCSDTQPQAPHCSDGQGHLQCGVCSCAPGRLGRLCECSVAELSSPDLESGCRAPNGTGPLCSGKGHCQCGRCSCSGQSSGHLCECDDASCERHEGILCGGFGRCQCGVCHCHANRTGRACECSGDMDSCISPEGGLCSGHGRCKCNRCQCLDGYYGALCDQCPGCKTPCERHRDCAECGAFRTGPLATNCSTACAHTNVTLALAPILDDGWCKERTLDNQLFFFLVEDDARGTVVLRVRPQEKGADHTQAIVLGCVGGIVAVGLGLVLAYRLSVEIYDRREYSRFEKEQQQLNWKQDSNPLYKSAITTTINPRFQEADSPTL
Put plainly: α4β7 Integrin Cell Capture Assay. Format: cell-based. To be noted: capture of α4β7 integrin expressing RPMI8866 cells on recombinant MadCAM-1 extracellular domain-coated plate; DMEM+0.5% FBS+0.5 mM MnCl2; read-out: EC50 α4β7. The protocol:
α4β7 Integrin Cell Capture Assay
The potency of inhibitors in preventing α4β7 integrin interaction with MadCAM-1 was measured by monitoring the capture of α4β7 integrin expressing cells on a recombinant MadCAM-1 extracellular domain-coated plate.
384-Well plates (Corning 3702) were coated with MadCAM-1 extracellular domain by dispensing 20 μL of MAdCAM-1 at 1.0 μg/mL per well and incubating overnight at 4° C. The plates were then washed with PBS and blocked with 3% BSA for 2 hours before being washed again.
RPMI8866 cells were spun down and re-suspended in assay medium (DMEM+0.5% FBS+0.5 mM MnCl2) at a density of 0.5×10^6 cells/mL. The cells were then dispensed (60 μL/well) to a 384-well plate (Greiner 781280) that was previously spotted with 60 nL of test compound per well. The plates were incubated at 37° C. for 1 hour. 50 μL of cells were transferred to the blocked, MadCAM-1-coated plates and incubated for 30 minutes at 37° C. 10 μL of 12% glutaraldehyde containing Hoechst 33342 (0.06 mg/mL) was added to the cells (2% glutaraldehyde and 0.01 mg/mL final concentrations). The plates were incubated for 90 minutes at room temperature. The plates were then washed 3 times with 70 μL of PBS per well and imaged on a Cellomics ArrayScan instrument. The cells that were bound to the plate were counted and plotted against the compound concentration to determine the EC50 of the test compounds.

By EC50 is commonly meant the concentration that produces a half-maximal response. As for `Cc1cc(N2CCOC[C@@H]2C(F)(F)F)cc(F)c1C(=O)N[C@@H](Cc1ccc(-c2c(C(F)(F)F)cc(C)n(C)c2=O)c2nccnc12)C(=O)O` (atropisomer, axis not shown) [Example 178], the EC50 came to 0.08 nM. The same measure for `Cc1cc(C(F)(F)F)c(-c2ccc(C[C@H](NC(=O)c3c(F)cc(N4CCOC[C@@H]4C(F)(F)F)cc3F)C(=O)O)c3nccnc23)c(=O)n1C` (atropisomer, axis not shown) [Example 179]: 0.1 nM; for `O=C(N[C@@H](Cc1ccc(-c2c(Cl)cc(F)cc2Cl)c2cccnc12)C(=O)O)c1c(F)cc(N2CCOCC2C(F)(F)F)cc1F` (single isomer, unassigned) [Example 5]: 702 nM. The same measure for `O=C(N[C@@H](Cc1ccc(-c2c(Cl)cc(F)cc2Cl)c2cccnc12)C(=O)O)c1c(F)cc(N2CCOCC2C(F)(F)F)cc1F` (single isomer, unassigned) [Example 6]: 139 nM; for `CC[C@@H](Nc1cc(F)c(C(=O)N[C@@H](Cc2ccc(-c3c(C)n(C)c(=O)n(C)c3=O)c3cccnc23)C(=O)O)c(F)c1)C(F)(F)F` (single isomer, unassigned) [Example 8]: 0.8 nM; for `CC[C@@H](Nc1cc(F)c(C(=O)N[C@@H](Cc2ccc(-c3c(C)n(C)c(=O)n(C)c3=O)c3cccnc23)C(=O)O)c(F)c1)C(F)(F)F` (single isomer, unassigned) [Example 9]: 4.1 nM. The same measure for `Cc1c(-c2ccc(C[C@H](NC(=O)c3c(Cl)cccc3Cl)C(=O)O)c3ncccc23)c(=O)n(C)c2ccc(F)cc12` (single isomer, unassigned) [Example 11]: 0.5 nM; for `Cc1c(-c2ccc(C[C@H](NC(=O)c3c(Cl)cccc3Cl)C(=O)O)c3ncccc23)c(=O)n(C)c2ccc(F)cc12` (single isomer, unassigned) [Example 12]: 19.5 nM. Turning to `Cc1c(-c2ccc(C[C@H](NC(=O)c3c(Cl)cccc3Cl)C(=O)O)c3ncccc23)c(=O)n(C)c2ccccc12` (single isomer, unassigned) [Example 47], the EC50 was found to be 28.6 nM. To `Cc1c(-c2ccc(C[C@H](NC(=O)c3c(Cl)cccc3Cl)C(=O)O)c3ncccc23)c(=O)n(C)c2ccccc12` (single isomer, unassigned) [Example 48] belongs 2.1 nM; to `COc1cc(F)cc(C(F)(F)F)c1-c1ccc(C[C@H](NC(=O)c2c(Cl)cccc2Cl)C(=O)O)c2ncccc12` (single isomer, unassigned) [Example 49], 46.2 nM.

With `COc1cc(F)cc(C(F)(F)F)c1-c1ccc(C[C@H](NC(=O)c2c(Cl)cccc2Cl)C(=O)O)c2ncccc12` (single isomer, unassigned) [Example 50], the EC50 amounted to 152 nM. To `COc1cc(F)cc(Cl)c1-c1ccc(C[C@H](NC(=O)c2c(Cl)cccc2Cl)C(=O)O)c2ncccc12` (single isomer, unassigned) [Example 53] belongs 150 nM. To `COc1cc(F)cc(Cl)c1-c1ccc(C[C@H](NC(=O)c2c(Cl)cccc2Cl)C(=O)O)c2ncccc12` (single isomer, unassigned) [Example 54] belongs 38.8 nM. To `Cc1cc(C(F)(F)F)c(-c2ccc(C[C@H](NC(=O)c3c(Cl)cccc3Cl)C(=O)O)c3ncccc23)c(=O)n1C` (single isomer, unassigned) [Example 60] belongs 2.7 nM; to `Cc1cc(C(F)(F)F)c(-c2ccc(C[C@H](NC(=O)c3c(Cl)cccc3Cl)C(=O)O)c3ncccc23)c(=O)n1C` (single isomer, unassigned) [Example 61], 15.1 nM. As for `Cn1c(=O)c(-c2ccc(C[C@H](NC(=O)c3c(Cl)cccc3Cl)C(=O)O)c3ncccc23)c(C(F)(F)F)c2ccccc21` (single isomer, unassigned) [Example 62], the EC50 turned out to be 3.2 nM. The same measure for `Cn1c(=O)c(-c2ccc(C[C@H](NC(=O)c3c(Cl)cccc3Cl)C(=O)O)c3ncccc23)c(C(F)(F)F)c2ccccc21` (single isomer, unassigned) [Example 63]: 33.8 nM; for `Cn1c(=O)c(-c2ccc(C[C@H](NC(=O)c3c(Cl)cccc3Cl)C(=O)O)c3ncccc23)c(C(F)(F)F)c2cc(Br)ccc21` (single isomer, unassigned) [Example 64]: 4.4 nM; for `Cn1c(=O)c(-c2ccc(C[C@H](NC(=O)c3c(Cl)cccc3Cl)C(=O)O)c3ncccc23)c(C(F)(F)F)c2cc(Br)ccc21` (single isomer, unassigned) [Example 65]: 26.8 nM.

Take `COc1cnn(C)c(=O)c1-c1ccc(C[C@H](NC(=O)c2c(Cl)cccc2Cl)C(=O)O)c2ncccc12` (single isomer, unassigned) [Example 73]: the half-maximal effective concentration (EC50) was found to be 8.4 nM. The same measure for `Cc1c(-c2ccc(C[C@H](NC(=O)c3c(Cl)cccc3Cl)C(=O)O)c3ncccc23)c(=O)n(C)c2ccc(Cl)cc12` (single isomer, unassigned) [Example 75]: 23 nM; for `Cc1c(-c2ccc(C[C@H](NC(=O)c3c(Cl)cccc3Cl)C(=O)O)c3ncccc23)c(=O)n(C)c2ccc(Cl)cc12` (single isomer, unassigned) [Example 76]: 55.7 nM; for `Cc1c(-c2ccc(C[C@H](NC(=O)c3c(Cl)cccc3Cl)C(=O)O)c3ncccc23)c(=O)n(C)c2cc(Cl)ccc12` (single isomer, unassigned) [Example 77]: 60.4 nM. The same measure for `Cc1c(-c2ccc(C[C@H](NC(=O)c3c(F)cccc3F)C(=O)O)c3ncccc23)c(=O)n(C)c(=O)n1C` (single isomer, unassigned) [Example 81]: 6.6 nM. To `Cc1c(-c2ccc(C[C@H](NC(=O)c3c(F)cccc3F)C(=O)O)c3ncccc23)c(=O)n(C)c(=O)n1C` (single isomer, unassigned) [Example 82] belongs 39 nM; to `Cc1cc(C(F)(F)F)c(-c2ccc(C[C@H](NC(=O)c3c(F)cc(N4CCOC[C@@H]4C(F)(F)F)cc3F)C(=O)O)c3ncccc23)c(=O)n1C` (single isomer, unassigned) [Example 85], 3 nM; to `Cc1cc(C(F)(F)F)c(-c2ccc(C[C@H](NC(=O)c3c(F)cc(N4CCOC[C@@H]4C(F)(F)F)cc3F)C(=O)O)c3ncccc23)c(=O)n1C` (single isomer, unassigned) [Example 86], 0.3 nM.
